These results are taken from US20100167931A1, “HETEROCYCLICALLY SUBSTITUTED HETEROCYCLYLCARBOXYLIC ACID DERIVATIVES” (Bayer CropScience AG, priority 2007, published 2010).

Data set [1] can be described thus: logP determination by HPLC on reverse-phase column (EEC Directive 79/831 Annex V.A8). It is filed as physicochemical. Conditions: for chromatographic logP: reverse-phase C18 HPLC column. As for the experimental part:
The logP values given in the tables and preparation examples above were determined in accordance with EEC Directive 79/831 Annex V.A8 by HPLC (High Performance Liquid Chromatography) on a reverse-phase column (C 18). Temperature: 43° C. The determination was carried out by LC-MS at pH 2.7 using 0.1% aqueous formic acid and acetonitrile (containing 0.1% formic acid) as mobile phases; linear gradient from 10% acetonitrile to 95% acetonitrile. Calibration was carried out using unbranched alkan-2-ones (having 3 to 16 carbon atoms) with known logP values (determination of the logP values by the retention times using linear interpolation between two successive alkanones).

In data set [2] the test system is green peach aphid (Myzus persicae). As to the kind of experiment: Activity increase by ammonium/phosphonium salts in combination with penetrants, Myzus persicae test. It is filed as in vivo. To be noted: 20 ppm, bell pepper plants. Here is the method:
Activity Increase by Ammonium/Phosphonium Salts in Combination with Penetrants Myzus persicae Test
Solvent: 7 parts by weight of dimethylformamide
Emulsifier: 2 parts by weight of alkylaryl polyglycol ether
To produce a suitable preparation of active compound, 1 part by weight of active compound is mixed with the stated amounts of solvent and emulsifier, and the concentrate is diluted with emulsifier-containing water to the desired concentration. If the addition of ammonium salts or ammonium salts and penetrants is required, these are in each case added in a concentration of 1000 ppm after dilution to the finished solution of the preparation.
Bell pepper plants (Capsicum annuum) which are heavily infested by the green peach aphid (Myzus persicaei) are treated by being sprayed with the active compound preparation at the desired concentration.
After the desired period of time, the kill in % is determined. 100% means that all animals have been killed; 0% means that none of the animals have been killed.

A further data set deals with Boophilus microplus. Briefly: Boophilus microplus test (injection). To be noted: application rate of 20 μg/animal. The class given is in vivo. As for the experimental part:
Boophilus microplus Test (Injection) Solvent: dimethyl sulphoxide To produce a suitable preparation of active compound, 1 part by weight of active compound is mixed with the stated amount of solvent, and the concentrate is diluted with solvent to the desired concentration. The solution of active compound is injected into the abdomen (Boophilus microplus), the animals are transferred into dishes and stored in a climatized room. After the desired period of time, the effect in % is determined. 100% means that none of the ticks has laid any fertile eggs.

Where [3] appears, read: HPLC reverse-phase C 18, 43° C., pH 2.7, 0.1% aqueous formic acid and acetonitrile.
Where [4] appears, read: intermediates of the formula (IV), HPLC reverse-phase C18, 43° C., pH 2.7 (0.1% aqueous formic acid/acetonitrile).
Setting [5] is: intermediates of the formula (VI), HPLC reverse-phase C18, 43° C., pH 2.7 (0.1% aqueous formic acid/acetonitrile).
[6] abbreviates: intermediates of the formula (V), HPLC reverse-phase C18, 43° C., pH 2.7 (0.1% aqueous formic acid/acetonitrile).

As a reminder, the chromatographic logP is lipophilicity estimated from chromatographic retention. Read a low chromatographic logP as lower lipophilicity. For `COC(=O)c1cnn2c(Cl)c(-c3ncc(Cl)cc3Cl)c(Cl)nc12` [Example V-2, Methyl 5,7-dichloro-6-(3,5-dichloropyridin-2-yl)pyrazolo[1,5-a]pyrimidine-3-carboxylate], in data set [1] (setting [3]), the chromatographic logP was 3.12.

In the case of `COC(=O)c1cnn2c(O)c(-c3cncc(Br)c3)c(O)nc12` [IV-15], in data set [1] (setting [4]), the logP result is “logP 0.78”.

Regarding `COC(=O)c1cnn2c(NC(C)C)c(-c3ncc(F)cc3F)c(Cl)nc12` [VI-11], the logP result in data set [1] (setting [5]) was “m/z 382, logP 2.76”.

Turning to `COC(=O)c1cnn2c(O)c(-n3cc(Cl)cn3)c(O)nc12` [IV-4], the logP entry in data set [1] (setting [4]) is “m/z 310, logP 0.43”.

Regarding `COC(=O)c1cnn2c(Cl)c(-n3cc(Cl)cn3)c(Cl)nc12` [V-5], in data set [1] (setting [6]), the logP result is on record as “m/z 346, logP 2.50”.

Turning to `COC(=O)c1cnn2c(O)c(-c3ncc(Cl)cc3Cl)c(O)nc12` [IV-2, Methyl 6-(3,5-dichloropyridin-2-yl)-5,7-dihydroxypyrazolo[1,5-a]pyrimidine-3-carboxylate], the chromatographic logP in data set [1] (setting [3]) was determined as 0.74.

For the compound `COC(=O)c1cnn2c(NC(C)C(F)(F)F)c(-c3c(C)nn(C)c3C)c(Cl)nc12` (centres unmarked) [VI-12], the logP result in data set [1] (setting [5]) was “m/z 431, logP 2.54”.

With `COC(=O)c1cnn2c(Cl)c(-c3c(Cl)c(C)nn3C)c(Cl)nc12` [V-18], the logP result in data set [1] (setting [6]) is reported as “logP 2.67”.

Consider `COC(=O)c1cnn2c(O)c(-c3ncc(C(F)(F)F)cc3F)c(O)nc12` [IV-19], for which the logP entry in data set [1] (setting [4]) is listed as “logP 0.91”.

On to `CC(C)C(C)Nc1c(-n2cc(Cl)cn2)c(Cl)nc2c(C(=O)O)cnn12` (centres unmarked) [Example I-25], for which the logP entry in data set [1] (setting [3]) is “m/z 383, logP 2.81”.

`N#CC(C#N)c1c(Cl)cncc1Cl` [2-(3,5-dichloropyridin-4-yl)malononitrile] had a chromatographic logP in data set [1] (setting [3]) of 0.9.

As for `COC(=O)c1cnn2c(O)c(-n3nc(C)cc3C)c(O)nc12` [IV-1, Methyl 6-(3,5-dimethyl-1H-pyrazol-1-yl)-5,7-dihydroxypyrazolo[1,5-a]pyrimidine-3-carboxylate], the chromatographic logP in data set [1] (setting [3]) turned out to be 0.41.

`COC(=O)c1cnn2c(O)c(-c3nc(C)sc3C)c(O)nc12` [IV-5]: the logP result in data set [1] (setting [4]) is “m/z 321, logP 0.43”.

On to `CC(C)Nc1c(-n2nc(C(F)(F)F)cc2C(F)(F)F)c(Cl)nc2c(C(=O)O)cnn12` [Example I-20], for which the logP result in data set [1] (setting [3]) is on record as “m/z 457, logP 3.11”.

For `COC(=O)c1cnn2c(O)c(-n3nc(C(F)(F)F)cc3C(F)(F)F)c(O)nc12` [IV-3], the logP entry in data set [1] (setting [4]) is “m/z 412, logP 1.37”.

Consider `CC(C)Nc1c(-c2ncccc2Cl)c(Cl)nc2c(C(=O)NS(C)(=O)=O)cnn12` [Example I-32], for which the “Kill (%) after 6 d +AS 1000 ppm” value in data set [2] (+AS 1000 ppm) was determined as 60%. In addition, in data set [2] (+AS + RME in each case 1000 ppm), the “Kill (%) after 6 d +AS + RME in each case 1000 ppm” value came out at 90%. Moreover, in data set [2] (active compound alone), the “Kill (%) after 6 d” value was found to be 10%.

For the compound `COC(=O)c1cnn2c(Cl)c(-c3c(C)nn(C)c3C)c(Cl)nc12` [V-8], the logP result in data set [1] (setting [6]) is listed as “m/z 354, logP 1.88”.

Regarding `COC(=O)c1cnn2c(O)c(-c3c(Cl)c(C)nn3C)c(O)nc12` [IV-17], the logP result in data set [1] (setting [4]) is on record as “logP 0.59”.

For `COC(=O)c1cnn2c(O)c(-c3ncccc3C(F)(F)F)c(O)nc12` [IV-20], the logP entry in data set [1] (setting [4]) is “logP 0.65”.

In the case of `COC(=O)c1cnn2c(Cl)c(-n3nc(C)cc3C)c(Cl)nc12` [Example V-1, Methyl 5,7-dichloro-6-(3,5-dimethyl-1H-pyrazol-1-yl)pyrazolo[1,5-a]pyrimidine-3-carboxylate], in data set [1] (setting [3]), the chromatographic logP came out at 2.16.

In the case of `Cc1nn(C)c(-c2c(Cl)nc3c(C(=O)O)cnn3c2NC(C)C)c1Cl` [Example I-57], the logP result in data set [1] (setting [3]) was “logP 2.20”.

Consider `O=C(O)c1cnn2c(NCC3CC3)c(-n3nc(C(F)(F)F)cc3C(F)(F)F)c(Cl)nc12` [Example I-23], for which, in data set [1] (setting [3]), the logP result is recorded as “m/z 469, logP 3.22”.

Regarding `COC(=O)c1cnn2c(Cl)c(-c3ncccc3C(F)(F)F)c(Cl)nc12` [V-21], the logP entry in data set [1] (setting [6]) is recorded as “logP 2.61”.

`COC(=O)c1cnn2c(NCC(F)(F)F)c(-n3nc(C(F)(F)F)cc3C(F)(F)F)c(Cl)nc12` [VI-2, Methyl 6-[3,5-bis(trifluoromethyl)-1H-pyrazol-1-yl]-5-chloro-7-[(2,2,2-trifluoroethyl)amino]-pyrazolo[1,5-a]pyrimidine-3-carboxylate]: in data set [1] (setting [3]), the chromatographic logP was 3.79.

As to `COC(=O)c1cnn2c(NC(C)C(C)C)c(-n3cc(Cl)cn3)c(Cl)nc12` (centres unmarked) [VI-9], in data set [1] (setting [5]), the logP result is reported as “m/z 397, logP 3.59”.

Turning to `CC(C)C(C)Nc1c(-n2nc(C(F)(F)F)cc2C(F)(F)F)c(Cl)nc2c(C(=O)NS(C)(=O)=O)cnn12` (centres unmarked) [Example I-4], the “effect (no fertile eggs laid)” value with Boophilus microplus is no less than 80%.

For the compound `COC(=O)c1cnn2c(Cl)c(-n3nc(C(F)(F)F)cc3C(F)(F)F)c(Cl)nc12` [V-3], in data set [1] (setting [6]), the logP entry was “m/z 448, logP 3.64”.
